Literature values, collected in PMC10623564, “Ruthenium-Based Photoactivated Chemotherapy” (Journal of the American Chemical Society, 2023).
Read-outs that look alike come from different tables or passages of the source. Marks after values point to notes of the source that are not given here.

How the values were obtained:
[1] = for φPS, mtep photosubstitution: in acetonitrile (521 nm printed for 23^+); for φPS, photosubstitution of one axial MeCN by chloride: 298 K, in CH2Cl2
[2] = not given; remark: listed apart in the source
[3] = for φΔ, singlet oxygen (1O2) generation quantum yield: in CD3OD solution
[4] = system: CRMM2 conjunctival melanoma cancer cell line; parameters: method as in PMID 35774173; details: CRMM2 cells, green light
[5] = system: PC3Pro4 prostate cancer cell lines; parameters: method as in PMID 35774173; details: PC3Pro4 cells, green light
[6] = system: PC3Pro4 ectopic prostate zebrafish tumor model; parameters: method as in PMID 35774173; details: compound in water or intravenous injection, green light
[7] = system: CRMM1 conjunctival melanoma cancer cell line; parameters: method as in PMID 35774173; details: CRMM1 cells, green light
[8] = system: orthotopic CRMM1 eye tumor model; parameters: method as in PMID 35774173
CYP3A4 = system: CYP3A4; parameters: method as in PMID 34110801; details: Figure 8c, read-out: IC50, CYP3A4 protein activity
A431 skin cancer cells = system: A431 skin cancer cells; parameters: method as in PMID 28666065
NAMPT = system: NAMPT; parameters: method as in PMID 28666065
[9] = conditions not given
cancer cells = system: cancer cells; parameters: method as in PMID 30155140; details: photosubstitution of the axial dmso ligand
[10] = λexc 450 nm, in water, room temperature
[11] = λexc 521 nm, in acetonitrile, room temperature
[12] = λexc 450 nm, in acetonitrile, room temperature
[13] = λexc not given, in water, room temperature

## CC#N.CC(=O)C=C(C)[O][Ru+].c1ccc(-c2cccc(-c3ccccn3)n2)nc1 [1^+, [Ru(tpy)(acac)(MeCN)]^+]
dark
  toxicity in the dark: quite toxic in the dark
[1]; [10]
  φPS, quantum yield for photosubstitution: 0.014 (450) ^j

## Cc1cccc(-c2cccc(C)n2)n1.[Ru+2].c1ccc(-c2ccccn2)nc1.c1ccc(-c2ccccn2)nc1 [2^2+, [Ru(bpy)2(dmbpy)]^2+]
[1]; λexc 413 nm, in acetonitrile, room temperature
  φPS, quantum yield for photosubstitution: 0.05 (413) ^f

## Oc1cccc(-c2cccc(O)n2)n1.[Ru+2].c1ccc(-c2ccccn2)nc1.c1ccc(-c2ccccn2)nc1 [3^2+, [Ru(bpy)2(6,6′-dOHbpy)]^2+]
[2]; Table 1 row with φPS in aqueous solution at pH 5.0
  λmax^MLCT: 462 nm
[2]; Table 1 row with φPS in aqueous solution at pH 7.5
  λmax^MLCT: 493 nm
[1]; λexc 450 nm, in aqueous solution at pH 5.0
  φPS, quantum yield for photosubstitution: 0.0058 (450) ^g
[1]; λexc 450 nm, in aqueous solution at pH 7.5
  φPS, quantum yield for photosubstitution: 0.0012 (450) ^h
[3]; Table 1 row with φPS at pH 5.0
  φΔ, singlet oxygen (1O2) generation quantum yield: 0.041 ^i
[3]; Table 1 row with φPS at pH 7.5
  φΔ, singlet oxygen (1O2) generation quantum yield: 0.18 ^i

## CSCc1ccccn1.[Ru+2].c1ccc(-c2ccccn2)nc1.c1ccc(-c2ccnc3c2ccc2c(-c4ccccc4)ccnc23)cc1 [5^2+, [Ru(dpp)(bpy)(mtmp)]^2+]
[4]
  PI value (photoindex): 8.8
[5]
  PI value (photoindex): > 31
[1]; in deaerated acetonitrile
  photosubstitution quantum yield: 0.11
[1]; [11]
  φPS, quantum yield for photosubstitution: 0.111 (521) ^f
[6]
  antitumor activity in vivo: no antitumor activity
[7]
  PI value (photoindex): 8.5
[8]; four consecutive PACT treatments of 90 min irradiation (114 J/cm^2) each, 520 nm
  activation in vivo: clear activation
[8]; orthotopic eye tumor model, retro-orbital injection, green light (520 nm, 114 J/cm^2)
  antitumor activity in vivo: good antitumor activity

## N.N.[Ru+2].c1ccc(-c2ccccn2)nc1.c1ccc(-c2ccccn2)nc1 [8^2+, [Ru(bpy)2(NH3)2]^2+]
[1]; λexc 350 nm, in water, room temperature
  φPS, quantum yield for photosubstitution: 0.024 (350) ^j

## CC(C)(C)OC(=O)N[C@H](CSCCC(=O)NCc1cccnc1)Cc1ccccc1.Cc1cccc(-c2cccc(C)n2)n1.[Ru+2].c1ccc(-c2cccc(-c3ccccn3)n2)nc1 [11^2+, [Ru(tpy)(dmbpy)(R-py)]^2+]
[1]; λexc 500 nm, in acetonitrile, room temperature
  φPS, quantum yield for photosubstitution: 0.31 (500) ^f
[1]; λexc 500 nm, in water, room temperature
  φPS, quantum yield for photosubstitution: 0.15 (500) ^j
CYP3A4; after light activation
  IC50: 2.2 µM
CYP3A4; in the dark
  IC50: 0.9 µM

## CC(C)(C)c1ccc(S(=O)(=O)NCc2ccc(C(=O)Nc3cccnc3)cc2)cc1.[Ru+2].c1ccc(-c2cccc(-c3ccccn3)n2)nc1.c1ccc2nc(-c3ccc4ccccc4n3)ccc2c1 [12^2+, [Ru(tpy)(biq)(STF31)]^2+]
A431 skin cancer cells; A431 cells, normoxia (21% O2)
  PI value (photoindex): 3.3
A431 skin cancer cells; A431 skin cancer cells, normoxia, dark
  EC50: 23.6 µM
A431 skin cancer cells; hypoxic A431 cells (1% O2)
  PI value (photoindex): 3.6
[2]; Figure 6 bottom
  λmax (absorption maximum): 531 nm
[2]; λexc = 625 nm (red light)
  εexc, molar absorption coefficient at the excitation wavelength: 379 M^–1·cm^–1
[1]; λexc 625 nm, in water, room temperature
  φPS, quantum yield for photosubstitution: 0.013 (625) ^j
NAMPT; NAMPT, dark
  loss of potency on caging relative to STF31: 18 times
NAMPT; caged compound in the dark, read-out: IC50,dark, NAMPT inhibition
  IC50: 4.8 µM

## CC#N.CC#N.[Ru+2].c1ccc(-c2ccccn2)nc1.c1ccc2cc3nc4c5cccnc5c5ncccc5c4nc3cc2c1 [17^2+, [Ru(bpy)(dppn)(MeCN)2]^2+]
[1]; λexc 400 nm, in water, room temperature
  φPS, quantum yield for photosubstitution: 0.002 (400) ^j

## CSCCc1ccccn1.[Ru+][c]1ccccc1-c1ccccn1.c1ccc(-c2ccccn2)nc1 [23^+, [Ru(bpy)(phpy)(mtep)]^+]
[1]
  φPS, mtep photosubstitution: 0.00035
[1]; [11]
  φPS, quantum yield for photosubstitution: 0.00035 (521) ^f

## CC(C)(C)c1ccc(S(=O)(=O)NCc2ccc(C(=O)Nc3cccnc3)cc2)cc1 [STF31, reference compound]
NAMPT; uncaged inhibitor, read-out: IC50, NAMPT inhibition
  IC50: 0.25 µM

## CC#N.CC#N.[Ru+2].c1ccc(-c2ccccn2)nc1.c1ccc(-c2ccccn2)nc1 [[Ru(bpy)2(MeCN)2]^2+, reference compound]
[1]; [10]
  φPS, quantum yield for photosubstitution: 0.22 (450) ^j
[1]; λexc printed as 40098 nm, in water, room temperature
  φPS, quantum yield for photosubstitution: 0.21 (40098) ^j

## CSCCc1ccccn1.[Ru+2].c1ccc(-c2ccccn2)nc1.c1ccc(-c2ccccn2)nc1 [[Ru(bpy)2(mtep)]^2+, reference compound]
[1]
  φPS, mtep photosubstitution: 0.0030

## [Ru+2].c1ccc(-c2ccccn2)nc1.c1ccc(-c2ccccn2)nc1.c1ccc(-c2ccccn2)nc1 [[Ru(bpy)3]^2+, reference compound]
[1]; λexc 436 nm, at 363 K in 0.1 M aqueous HCl
  φPS, quantum yield for photosubstitution: 0.00053 (436) ^e
[1]; [12]
  φPS, quantum yield for photosubstitution: 0 (450) ^f
[3]; conditions not given
  φΔ (generator of 1O2): ≈ 0.73
[9]
  φP (phosphorescence): ≈ 0.02

## CC#N.CC#N.CC#N.[Ru+2].c1ccc(-c2cccc(-c3ccccn3)n2)nc1 [[Ru(tpy)(MeCN)3]^2+, reference compound]
[1]; 436 nm
  φPS, photosubstitution of one axial MeCN by chloride: 0.040
[1]; 480 nm
  φPS, photosubstitution of one axial MeCN by chloride: 0.041

## CSCCO.[Ru+2].c1ccc(-c2cccc(-c3ccccn3)n2)nc1.c1ccc(-c2ccccn2)nc1 [[Ru(tpy)(bpy)(Hmte)]^2+, reference compound]
[1]; λexc 452 nm, in water, room temperature
  φPS, quantum yield for photosubstitution: 0.022 (452) ^j

## O.[Ru+2].c1ccc(-c2cccc(-c3ccccn3)n2)nc1.c1ccc(-c2ccccn2)nc1 [[Ru(tpy)(bpy)(OH2)]^2+, reference compound]
other
  toxicity of the complex by itself: poorly toxic

## CS(C)=O.[Ru+2].c1ccc(-c2cccc(-c3ccccn3)n2)nc1.c1ccc(-c2ccccn2)nc1 [[Ru(tpy)(bpy)(dmso)]^2+, reference compound]
[1]; at 450 nm
  quantum yield of photosubstitution of dmso by acetonitrile: 0.016
[1]; [12]
  φPS, quantum yield for photosubstitution: 0.016 (450) ^f

## Cc1cccc(-c2cccc(C)n2)n1.[Cl-].[Cl][Ru+].c1ccc(-c2cccc(-c3ccccn3)n2)nc1 [[Ru(try)(dmbpy)Cl]Cl, [Ru(tpy)(dmbpy)Cl]Cl, reference compound]
CYP3A4
  IC50: 50 µM

## CP(C)C.[Ru+2].c1c[nH]cn1.c1ccc(-c2ccccn2)nc1.c1ccc(-c2ccccn2)nc1 [cis-9^2+, cis-[Ru(bpy)2(PMe3)(ImH)]^2+]
[2]
  absorption maximum: 432 nm
[1]; [13]
  φPS, quantum yield for photosubstitution: 0.10 ^j

## CC(C)(C)OC(=O)N[C@H](CSCCC(=O)NCc1cccnc1)Cc1ccccc1 [compound 24]
CYP3A4
  IC50: 1.5 µM

## CP(C)C.[Ru+2].c1c[nH]cn1.c1ccc(-c2ccccn2)nc1.c1ccc(-c2ccccn2)nc1 [trans-9^2+, trans-[Ru(bpy)2(PMe3)(ImH)]^2+]
[2]
  absorption maximum: 464 nm
[1]; [13]
  φPS, quantum yield for photosubstitution: 0.23 ^j

## [Ru(bapbpy)(dmso)(OH2)]^+ [10^2+]
Cancer cells
  effect of light irradiation performed in cancer cells: led to cell death
[1]; [10]
  φPS, quantum yield for photosubstitution: 0.003 (450) ^j
